Laboratory results as given in patent publication US8765748B2, “Indazolyl, benzimidazolyl, benzotriazolyl substituted indolinone derivatives as kinase inhibitors useful in the treatment of cancer” (University Health Network, priority 2007, dated 2014).

What was measured:
Assay in all cases: Kinase Selectivity Assay (CEREP, HTRF)
Format in all cases: biochemical
[1] = molecular target: T1, BMX kinase (Etk) (Homo sapiens, UniProt P51813); conditions: read-out: % Inhibition at 10 μM Concentration, BMX (Etk)
T1 construct: CEREP, France (ran the assays)
T1 sequence (P51813 1-675): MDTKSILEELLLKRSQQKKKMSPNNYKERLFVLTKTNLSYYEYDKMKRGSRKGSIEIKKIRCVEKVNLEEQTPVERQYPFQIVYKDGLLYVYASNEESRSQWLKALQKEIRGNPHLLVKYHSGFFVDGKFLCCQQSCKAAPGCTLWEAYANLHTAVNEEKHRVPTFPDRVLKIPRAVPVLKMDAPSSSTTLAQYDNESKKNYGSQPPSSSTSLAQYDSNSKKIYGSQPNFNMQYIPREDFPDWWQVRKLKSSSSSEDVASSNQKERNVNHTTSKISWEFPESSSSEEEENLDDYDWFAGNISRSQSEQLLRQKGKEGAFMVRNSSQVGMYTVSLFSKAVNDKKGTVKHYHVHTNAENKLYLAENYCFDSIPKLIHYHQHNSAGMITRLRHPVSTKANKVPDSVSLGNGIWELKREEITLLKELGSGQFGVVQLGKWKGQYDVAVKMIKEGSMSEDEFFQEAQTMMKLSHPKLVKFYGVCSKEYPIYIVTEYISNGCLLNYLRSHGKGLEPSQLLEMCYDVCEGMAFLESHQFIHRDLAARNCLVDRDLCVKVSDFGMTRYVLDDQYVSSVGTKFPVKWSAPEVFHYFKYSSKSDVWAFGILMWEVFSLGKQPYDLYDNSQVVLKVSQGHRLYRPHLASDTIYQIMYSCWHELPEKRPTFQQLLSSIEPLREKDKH
Protocol: (§1) kinase, ROCK2, RSK2, Src kinase, Syk, and TRKA. The % Inhibition was determined

[2] = molecular target: T2, FGFR4 kinase (Homo sapiens, UniProt P22455); conditions: read-out: % Inhibition at 10 μM Concentration, FGFR4
T2 construct: CEREP, France (ran the assays)
T2 sequence (P22455 22-802): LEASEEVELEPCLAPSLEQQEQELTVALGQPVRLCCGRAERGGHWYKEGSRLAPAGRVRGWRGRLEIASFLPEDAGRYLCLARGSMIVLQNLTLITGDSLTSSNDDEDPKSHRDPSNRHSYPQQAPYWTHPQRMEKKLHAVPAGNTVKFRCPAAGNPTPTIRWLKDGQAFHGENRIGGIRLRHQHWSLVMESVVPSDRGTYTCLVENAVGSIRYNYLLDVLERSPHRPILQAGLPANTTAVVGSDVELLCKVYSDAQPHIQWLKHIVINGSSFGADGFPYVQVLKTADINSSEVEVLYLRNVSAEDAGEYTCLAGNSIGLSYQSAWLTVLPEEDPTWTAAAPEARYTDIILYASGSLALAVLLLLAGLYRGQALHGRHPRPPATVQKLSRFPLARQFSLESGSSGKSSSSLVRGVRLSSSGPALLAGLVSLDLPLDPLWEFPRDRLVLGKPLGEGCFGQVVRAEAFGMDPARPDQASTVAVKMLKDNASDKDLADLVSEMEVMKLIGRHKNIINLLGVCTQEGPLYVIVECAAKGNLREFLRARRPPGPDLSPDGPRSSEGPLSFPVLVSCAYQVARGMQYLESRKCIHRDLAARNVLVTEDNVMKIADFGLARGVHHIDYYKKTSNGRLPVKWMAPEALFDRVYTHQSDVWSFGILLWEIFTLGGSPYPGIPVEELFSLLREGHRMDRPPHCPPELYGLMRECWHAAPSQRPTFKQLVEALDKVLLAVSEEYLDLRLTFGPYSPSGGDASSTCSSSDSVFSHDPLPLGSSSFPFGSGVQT
Protocol: as §1

[3] = molecular target: T3, FLT-3 kinase (Homo sapiens, UniProt P36888); conditions: read-out: % Inhibition at 10 μM Concentration, FLT-3
T3 sequence (P36888 27-993): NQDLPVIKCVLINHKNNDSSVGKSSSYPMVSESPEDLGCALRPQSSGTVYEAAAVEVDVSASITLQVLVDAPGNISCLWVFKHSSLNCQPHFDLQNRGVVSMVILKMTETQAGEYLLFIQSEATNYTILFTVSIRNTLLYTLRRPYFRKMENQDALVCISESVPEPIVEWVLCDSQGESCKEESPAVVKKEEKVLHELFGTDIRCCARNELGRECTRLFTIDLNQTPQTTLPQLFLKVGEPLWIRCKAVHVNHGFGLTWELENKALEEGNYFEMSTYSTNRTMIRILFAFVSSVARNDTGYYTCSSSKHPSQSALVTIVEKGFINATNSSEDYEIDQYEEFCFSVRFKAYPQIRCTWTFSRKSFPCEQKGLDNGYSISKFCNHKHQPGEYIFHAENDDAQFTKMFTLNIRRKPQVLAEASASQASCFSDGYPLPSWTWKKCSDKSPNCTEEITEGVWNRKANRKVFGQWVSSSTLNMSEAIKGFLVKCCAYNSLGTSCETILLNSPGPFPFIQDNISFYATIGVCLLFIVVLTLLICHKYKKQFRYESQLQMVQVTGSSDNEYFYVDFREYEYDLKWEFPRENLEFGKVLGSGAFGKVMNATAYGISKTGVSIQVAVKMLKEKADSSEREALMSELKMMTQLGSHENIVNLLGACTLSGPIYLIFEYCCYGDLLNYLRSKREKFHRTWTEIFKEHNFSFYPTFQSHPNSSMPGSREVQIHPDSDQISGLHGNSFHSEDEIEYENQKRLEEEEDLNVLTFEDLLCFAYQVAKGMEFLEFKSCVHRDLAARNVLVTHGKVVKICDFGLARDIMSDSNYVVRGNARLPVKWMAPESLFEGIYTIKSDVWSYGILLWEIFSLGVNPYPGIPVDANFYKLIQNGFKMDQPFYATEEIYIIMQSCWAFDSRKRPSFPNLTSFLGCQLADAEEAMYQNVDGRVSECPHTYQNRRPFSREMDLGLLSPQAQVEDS
Protocol: as §1

[4] = molecular target: MAPKAPK2 (Homo sapiens, UniProt P49137); conditions: read-out: % Inhibition at 10 μM Concentration, MAPKAPK2
MAPKAPK2, sequence (P49137 whole entry): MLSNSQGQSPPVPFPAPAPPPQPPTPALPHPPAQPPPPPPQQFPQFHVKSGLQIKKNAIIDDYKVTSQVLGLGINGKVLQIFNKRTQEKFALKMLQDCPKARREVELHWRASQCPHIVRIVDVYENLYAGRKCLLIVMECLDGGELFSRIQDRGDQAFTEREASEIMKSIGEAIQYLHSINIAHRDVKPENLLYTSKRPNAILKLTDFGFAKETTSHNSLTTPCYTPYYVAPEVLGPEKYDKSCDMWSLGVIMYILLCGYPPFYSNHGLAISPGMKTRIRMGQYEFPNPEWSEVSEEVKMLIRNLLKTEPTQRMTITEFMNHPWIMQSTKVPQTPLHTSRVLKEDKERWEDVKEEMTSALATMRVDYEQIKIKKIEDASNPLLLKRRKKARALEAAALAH
Protocol: as §1

[5] = molecular target: PKA (Homo sapiens, UniProt P17612); conditions: read-out: % Inhibition at 10 μM Concentration, PKA
Protocol: as §1

[6] = molecular target: Src kinase (Homo sapiens, UniProt P12931); conditions: read-out: % Inhibition at 10 μM Concentration, Src
Src kinase, sequence (P12931 whole entry): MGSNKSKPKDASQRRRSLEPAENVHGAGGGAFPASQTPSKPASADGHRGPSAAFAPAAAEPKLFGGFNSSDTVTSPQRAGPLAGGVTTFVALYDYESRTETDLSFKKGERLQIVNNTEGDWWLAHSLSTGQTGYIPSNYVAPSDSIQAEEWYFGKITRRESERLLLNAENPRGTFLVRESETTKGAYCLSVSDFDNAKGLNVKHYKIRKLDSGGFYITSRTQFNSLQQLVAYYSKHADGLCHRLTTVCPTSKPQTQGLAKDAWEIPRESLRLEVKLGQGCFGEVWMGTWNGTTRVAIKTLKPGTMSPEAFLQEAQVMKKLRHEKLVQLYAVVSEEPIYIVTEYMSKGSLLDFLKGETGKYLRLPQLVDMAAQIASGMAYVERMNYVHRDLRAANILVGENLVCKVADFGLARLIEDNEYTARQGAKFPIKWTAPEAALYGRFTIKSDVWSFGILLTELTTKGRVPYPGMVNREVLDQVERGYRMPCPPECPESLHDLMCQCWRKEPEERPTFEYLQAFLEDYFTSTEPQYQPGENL
Protocol: as §1

| SMILES | inhibition at 10 µM [1] [%] | inhibition at 10 µM [2] [%] | inhibition at 10 µM [3] [%] | inhibition at 10 µM [4] [%] | inhibition at 10 µM [5] [%] | inhibition at 10 µM [6] [%] |
| --- | --- | --- | --- | --- | --- | --- |
| O=C1Nc2ccccc2C1=Cc1ccc2c(/C=C/c3ccccn3)n[nH]c2c1 (mixture of isomers) [Example A41, (E and Z)-3-((3-((E)-2-(pyridin-2-yl)vinyl)-1H-indazol-6-yl)methylene)indolin-2-one] | 53 | 38 | 100 | 0 | -4 | 59 |
| COc1ccc2c(c1)C(=Cc1ccc3c(-c4ccc(N5CCN(C)CC5)nc4)n[nH]c3c1)C(=O)N2 (mixture of isomers) [Example A97, (E and Z)-5-methoxy-3-((3-(6-(4-methylpiperazin-1-yl)pyridin-3-yl)-1H-indazol-6-yl)methylene)indolin-2-one] | 9 | 30 | 100 | 4 | 0 | 24 |
| O=C1Nc2ccccc2/C1=C\c1ccc2[nH]nnc2c1 [Example A1, (E)-3-((1H-benzo[d][1,2,3]triazol-5-yl)methylene)indolin-2-one] | – | 18 | 93 | 6 | 9 | 10 |
| O=C1Nc2ccccc2/C1=C\c1ccc2cn[nH]c2c1 [Example A5, (E)-3-((1H-indazol-6-yl)methylene)indolin-2-one] | -3 | -4 | 76 | 0 | -1 | -9 |
| O=C1Nc2ccccc2/C1=C\c1ccc2c(/C=C/c3ccccc3Cl)n[nH]c2c1 [Example A60, (E)-3-((3-((E)-2-chlorostyryl)-1H-indazol-6-yl)methylene)indolin-2-one] | 18 | 6 | 10 | 19 | 7 | 0 |
